Measured values reported in the supplement of paper PMC10307832.

Legend:
Assay in all cases: relative viability (nuclei count vs DMSO), 5 days (fraction); higher = more cells survive
CX-5461 + OSI-027 = compound: Cc1cnc(CNC(=O)c2c(=O)c3ccc(N4CCCN(C)CC4)nc3n3c2sc2ccccc23)cn1 [CX-5461] + COc1cccc2cc(-c3nc([C@H]4CC[C@H](C(=O)O)CC4)n4ncnc(N)c34)[nH]c12 [OSI-027] (partner 0.5 µM)
Method in brief: (§1)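 Medians of duplicate plates are given as relative viability. That measure is the nuclei count in treated wells divided by the count in vehicle wells. Counts were taken on 4× images of lung cancer cell lines in 1536-well plates, 5 days after pin-tool dosing the day after seeding with one drug alone or a fixed anchor-drug dose plus five library-drug doses (not always all listed) in √10 steps.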

IMD-0354 + Lapatinib = compound: O=C(Nc1cc(C(F)(F)F)cc(C(F)(F)F)c1)c1cc(Cl)ccc1O [IMD-0354] + CS(=O)(=O)CCNCc1ccc(-c2ccc3ncnc(Nc4ccc(OCc5cccc(F)c5)c(Cl)c4)c3c2)o1 [Lapatinib] (partner 2 µM)
Method in brief: as §1

IMD-0354 + Dasatinib = compound: O=C(Nc1cc(C(F)(F)F)cc(C(F)(F)F)c1)c1cc(Cl)ccc1O [IMD-0354] + Cc1nc(Nc2ncc(C(=O)Nc3c(C)cccc3Cl)s2)cc(N2CCN(CCO)CC2)n1 [Dasatinib] (partner 0.075 µM)
Method in brief: as §1

CX-5461 + Pictilisib = compound: Cc1cnc(CNC(=O)c2c(=O)c3ccc(N4CCCN(C)CC4)nc3n3c2sc2ccccc23)cn1 [CX-5461] + CS(=O)(=O)N1CCN(Cc2cc3nc(-c4cccc5[nH]ncc45)nc(N4CCOCC4)c3s2)CC1 [Pictilisib] (partner 1 µM)
Method in brief: as §1

Row | Cell Line | relative viability (CX-5461 + OSI-027; first compound 0.01 µM) | relative viability (CX-5461 + OSI-027; first compound 0.03162 µM) | relative viability (CX-5461 + OSI-027; first compound 0.1 µM) | relative viability (CX-5461 + OSI-027; first compound 0.3162 µM) | relative viability (CX-5461 + OSI-027; first compound 1 µM) | relative viability (IMD-0354 + Lapatinib; first compound 0.04 µM) | relative viability (IMD-0354 + Lapatinib; first compound 0.1265 µM) | relative viability (IMD-0354 + Lapatinib; first compound 0.4 µM) | relative viability (IMD-0354 + Lapatinib; first compound 1.265 µM) | relative viability (IMD-0354 + Lapatinib; first compound 4 µM) | relative viability (IMD-0354 + Dasatinib; first compound 0.04 µM) | relative viability (IMD-0354 + Dasatinib; first compound 0.1265 µM) | relative viability (IMD-0354 + Dasatinib; first compound 0.4 µM) | relative viability (IMD-0354 + Dasatinib; first compound 1.265 µM) | relative viability (IMD-0354 + Dasatinib; first compound 4 µM) | relative viability (CX-5461 + Pictilisib; first compound 0.01 µM) | relative viability (CX-5461 + Pictilisib; first compound 0.03162 µM) | relative viability (CX-5461 + Pictilisib; first compound 0.1 µM) | relative viability (CX-5461 + Pictilisib; first compound 0.3162 µM) | relative viability (CX-5461 + Pictilisib; first compound 1 µM)
1 | NCI-H596 | 0.711 | 0.737 | 0.775 | 0.715 | 0.591 | 0.989 | 1.22 | 0.823 | 1.07 | 0.474 | 0.728 | 0.608 | 0.435 | 0.63 | 0.261 | 0.465 | 0.406 | 0.372 | 0.429 | 0.344
2 | H3255 | 0.568 | 0.542 | 0.559 | 0.543 | 0.568 | 0.189 | 0.246 | 0.276 | 0.17 | 0.207 | 0.303 | 0.348 | 0.264 | 0.235 | 0.282 | 0.489 | 0.554 | 0.469 | 0.347 | 0.422
3 | NCI-H647 | 0.742 | 0.565 | 0.669 | 0.566 | 0.467 | 1.63 | 0.859 | 0.495 | 0.193 | 0.0984 | 0.263 | 0.0872 | 0.132 | 0.0483 | 0.0895 | 0.429 | 0.459 | 0.426 | 0.136 | 0.28
4 | NCI-H2023 | 0.387 | 0.386 | 0.184 | 0.329 | 0.0856 | 0.717 | 0.841 | 0.662 | 0.0897 | 0.084 | 0.713 | 0.497 | 0.361 | 0.108 | 0.113 | 0.284 | 0.257 |  | 0.0857 | 0.102
5 | NCI-H23 | 0.672 | 0.757 | 0.546 | 0.544 | 0.343 | 0.996 | 1.14 | 0.475 | 0.183 | 0.237 | 0.836 | 0.82 | 0.384 | 0.275 | 0.227 | 0.449 | 0.501 | 0.488 | 0.292 | 0.362
6 | NCI-H2170 | 0.812 | 0.666 | 0.754 | 0.707 | 0.747 | 0.275 | 0.288 | 0.255 | 0.252 | 0.223 | 0.577 | 0.737 | 0.408 | 0.335 | 0.186 | 0.368 | 0.366 | 0.344 | 0.232 | 0.379
7 | NCI-H1944 | 0.49 | 0.446 | 0.377 | 0.252 | 0.259 | 0.699 | 0.862 |  | 0.922 | 0.171 | 0.21 | 0.212 | 0.22 | 0.167 | 0.114 | 0.335 | 0.371 | 0.332 |  | 0.353
8 | NCI-H520 | 0.193 | 0.247 | 0.24 | 0.197 | 0.266 | 0.932 | 0.792 | 0.46 | 0.197 | 0.197 | 0.21 | 0.185 | 0.186 | 0.132 | 0.163 | 0.218 | 0.299 | 0.285 | 0.305 | 0.298
9 | NCI-H460 | 0.573 | 0.541 |  | 0.684 | 0.0247 | 1.08 | 0.679 | 0.178 | 0.0562 | 0.0153 | 0.518 | 0.529 | 0.253 | 0.0582 | 0.0193 | 0.462 | 0.338 | 0.366 | 0.108 | 0.2
10 | EKVX | 0.745 | 0.676 | 0.786 | 0.734 | 0.688 | 0.406 | 0.203 |  | 0.128 | 0.134 | 0.32 | 0.505 | 0.445 | 0.409 | 0.272 | 0.47 | 0.447 | 0.429 |  | 0.389
11 | SK-MES-1 | 0.586 | 0.57 | 0.582 | 0.607 | 0.372 | 0.434 | 0.528 | 0.377 | 0.369 | 0.236 | 0.437 | 0.307 | 0.396 | 0.126 | 0.184 | 0.391 | 0.352 | 0.402 | 0.324 | 0.333
12 | EPLC-272H | 0.259 | 0.288 | 0.297 |  | 0.31 | 1.32 | 0.944 | 0.618 | 0.716 | 0.205 | 0.511 | 0.279 | 0.353 | 0.121 | 0.0731 | 0.306 | 0.353 | 0.339 |  | 0.335
13 | NCI-H1563 | 0.715 | 0.745 | 0.691 | 0.771 | 0.52 | 1.18 | 1.01 | 0.903 | 0.44 | 0.415 | 0.482 | 0.462 | 0.422 | 0.367 | 0.211 | 0.648 | 0.662 | 0.637 | 0.624 | 0.528
14 | NCI-H1793 | 0.296 | 0.289 | 0.318 |  | 0.198 | 0.651 | 0.613 | 0.347 | 0.238 | 0.323 | 0.399 | 0.413 | 0.241 | 0.16 | 0.154 | 0.202 | 0.311 | 0.344 | 0.212 | 0.402
15 | NCI-H2126 | 0.75 | 0.684 | 0.717 | 0.783 | 0.63 | 0.793 | 0.803 | 0.655 | 0.768 | 0.378 | 0.587 | 0.666 | 0.387 | 0.216 | 0.237 | 0.486 | 0.521 | 0.478 | 0.518 | 0.487
16 | LXF-289 | 0.755 | 0.924 | 0.892 | 0.416 | 0.581 | 0.948 | 0.895 | 0.835 | 0.301 | 0.188 | 0.249 | 0.244 | 0.207 | 0.0737 | 0.068 | 0.789 | 0.922 | 0.805 | 0.72 | 0.435
